Results taken from patent publication US20190269629A1, “COMPOSITIONS AND METHODS FOR INHIBITING GROWTH OF ACSL4-OVEREXPRESSING TUMORS” (CONSEJO NACIONAL DE INVESTIGACIONES CIENTÍFICAS Y TÉCNICAS …, priority 2016, published 2019).

Key:
Assay type in all cases: cell-based, human
ABCG2 = experiment: Western blot of ABCG2 in MDA-MB-231 cells after ACSL4 inhibition; conditions: Triacsin C 1 uM or rosiglitazone 100 uM, 48 h
From the text: (§1) A) MDA-MB-231 cells were transfected with the pSUPER.retro plasmid containing a shRNA targeted to ACSL4 (shRNA-ACSL4) or an empty plasmid (mock) as previously described ((Maloberti P. M. et al., 2010, supra).
(§2) One month post selection, whole cell extracts were obtained and analyzed by Western blot as previously described using the indicated antibodies. […] Forty-eight hours post-treatment, whole cell extracts were obtained and analyzed by Western blot as previously described using the indicated antibodies. Representative blots (upper panels) and integrated optical density of protein levels (lower panels) quantified and normalized with the corresponding 1-tubulin signal are shown.
(§3) J Biol Chem 2001; 276(27):24667-24673).
(§4) MDA-MB-231 cells were seeded the day before and grown up to 80% confluence. […] The empty vector was used as control. Transfection efficiency was estimated by counting fluorescent cells transfected with the pRc/CMVi plasmid containing the enhanced form of green fluorescent protein [Maloberti et al.; 2010].

ABCC4 = experiment: Western blot of ABCC4 in MDA-MB-231 cells after ACSL4 inhibition; conditions: Triacsin C 1 uM or rosiglitazone 100 uM, 48 h
From the text: as §1, §2, §3, §4

ABCC8 = experiment: Western blot of ABCC8 in MDA-MB-231 cells after ACSL4 inhibition; conditions: Triacsin C 1 uM or rosiglitazone 100 uM, 48 h
From the text: as §1, §2, §3, §4

MDA-MB-231 cells [1] = experiment: BrdU cell proliferation assay, MDA-MB-231 cells; conditions: for inhibition of MDA-MB-231 cell proliferation (BrdU): Triacsin C 0.01-0.10 M and/or doxorubicin 0.025 μM or paclitaxel 0.1 μM, 96 h; for dosage used in combination therapy relative to the minimum dose that produces a significant inhibition when administered alone: Triacsin C: in cell culture; for dosage used in combination therapy relative to the minimum dose that produces a significant inhibition when administered alone / amount used in combination relative to the maximum effective dose when applied alone (same inhibitory effect): combination therapy
Method: Subsequently, cell proliferation was measured by BrdU incorporation assay. Data arc presented as inhibition of cell proliferation compared to control cells. White bars indicate single inhibitor treatment while grey bars indicate combined inhibitor treatment.
MDA-MB-231 cells were plated as described in FIG. 3 and then incubated with Triacsin C ([…]) and/or A. doxorubicin (0.025 μM), B. paclitaxel (0.1 μM) for 96 h. Subsequently, cell proliferation was measured by BrdU incorporation assay. Data are presented as inhibition of cell proliferation compared to control cells. White bars indicate single inhibitor treatment while black bars indicate combined inhibitor treatment.
(§5) Cell proliferation assays were measured by the MTT and 5-bromo-2′-deoxyuridine (BrdU) incorporation as previously described (Maloberti P. M. et al., 2010).
(§6) MBA-MB-231 cells were plated at a density of 4000 cells/well in 96-well plates with 10% FBS-supplemented D-MEM medium and allowed to adhere overnight at 37° C. in a humidified, 5% CO2 atmosphere. The medium was then changed to serum-free medium. […] Subsequently, cell proliferation was measured by the bromo-deoxvuridine (BrdU) incorporation assay.
as §6, with “MDA-MB-231” for “MBA-MB-231”, “bromo-deoxyuridine” for “bromo-deoxvuridine”
(§7) MBA-MB-231 cells were plated at a density of 4000 cells/well in 96-well plates with 10% FBS-supplemented D-MEM medium and allowed to adhere overnight at 37° C. in a humidified, 5% CO2 atmosphere. The medium was then changed to serum-free medium. After 24 h, the cells were switched to 10% FBS-supplemented D-MEM medium and incubated with doxorubicin and/or Triacsin C for 96 h. Subsequently, cell proliferation was measured by the bromo-deoxyuridine (BrdU) incorporation assay.
as §7, with “MDA-MB-231 cells” for “MBA-MB-231 cells”, “C. m” for “C. in”, “24 h.” for “24 h,”, “with paclitaxel” for “with doxorubicin”, “the bromo-deoxvuridine” for “the bromo-deoxyuridine”

[2] = system: MCF-7 Tet-Off/ACSL4 cells; experiment: BrdU cell proliferation assay, MCF-7 Tet-Off/ACSL4 cells
Method: (§8) MCF-7 Tet-Off empty vector and MCF-7 Tet-Off/ACSL4 cells were plated at a density of 4000 cells/well in 96-well plates with 10% FBS-supplemented D-MEM and allowed to adhere overnight at 37° C. in a humidified 5% CO2 atmosphere. The medium was then changed to serum-free medium. After 24 h, the cells were switched to 10% FBS-supplemented D-MEM with A. doxorubicin (0.025-0.100 μM) and B. paclitaxel (0.1-0.5 μM), and with doxycycline (0.025 μM) where indicated. After 48 h, cell proliferation was measured by BrdU incorporation assay. Data are presented as inhibition of cell proliferation compared to control cells.
as §5
Separate experiments were carried out for each one of the tested chemotherapeutic agents. Each chemotherapeutic agent was first tested alone at the concentrations used, and then in combination with doxycycline, for each of the cell groups: MCF-7 Tet-Off/ACSL4 cells, MCF-7 Tet-Off empty vector cells and doxycycline-treated MCF-7 Tet-Off/ACSL4 cells, the latter is used to specifically override ACSL4 expression.
as §7, with “MCF-7 Tet-Off empty vector and MCF-7 Tet-Off/ACSL4” for “MBA-MB-231”, “at varying (sub-therapeutically effective or non-effective per se) concentrations (0.025, 0.050, 0.100 μM)” for “and/or Triacsin C”
as §7, with “MCF-7 Tet-Off empty vector and MCF-7 Tet-Off/ACSL4” for “MBA-MB-231”, “paclitaxel at varying (sub-therapeutically effective or non-effective per se) concentrations (0.1, 0.2, 0.5 μM)” for “doxorubicin and/or Triacsin C”

[3] = system: MCF-7 Tet-Off empty vector cells; experiment: BrdU cell proliferation assay, MCF-7 Tet-Off empty vector cells; conditions: doxorubicin 0.025, 0.050, 0.100 μM or paclitaxel 0.1, 0.2, 0.5 μM, 96 h
Method: as §8, §5
Separate experiments were carried out for each one of the tested chemotherapeutic agents. […]
MCF-7 Tet-Off empty vector and MCF-7 Tet-Off/ACSL4 cells were plated at a density of 4000 cells/well in 96-well plates with 10% FBS-supplemented D-MEM medium and allowed to adhere overnight at 37° C. in a humidified, 5% CO2 atmosphere. […] Subsequently, cell proliferation was measured by the bromo-deoxyuridine (BrdU) incorporation assay. […]

MDA-MB-231 cells [4] = experiment: BrdU cell proliferation assay, MDA-MB-231 cells; conditions: rosiglitazone 20 μM and/or doxorubicin 0.025 μM or paclitaxel 0.5 μM; 96 h
[5] = MCF-7 Tet-Off/ACSL4 cells, doxorubicin 0.025, 0.050, 0.100 μM or paclitaxel 0.1, 0.2, 0.5 μM, 96 h
[6] = doxycycline-treated MCF-7 Tet-Off/ACSL4 cells, doxorubicin 0.025-0.100 μM or paclitaxel 0.1-0.5 μM

SMILES | ABCG2 protein levels (ABCG2) | ABCC4 protein levels (ABCC4) | ABCC8 protein levels (ABCC8) | inhibition of MDA-MB-231 cell proliferation (BrdU) (MDA-MB-231 cells [1]) | dosage used in combination therapy relative to the minimum dose that produces a significant inhibition when administered alone (MDA-MB-231 cells [1]) | inhibition of cell proliferation (BrdU) [2, 5] | inhibition of cell proliferation (BrdU) [2, 6] | inhibition of cell proliferation (BrdU) [3] | amount used in combination relative to the maximum effective dose when applied alone (same inhibitory effect) (MDA-MB-231 cells [1]) [times lower] | inhibition of MDA-MB-231 cell proliferation (BrdU) (MDA-MB-231 cells [4])
CCC/C=C/C/C=C/C=C/C=NNN=O [Triacsin C, N-(((2E,4E,7E)-undeca-2,4,7-trienylidene)amino)nitrous amide] | markedly decreased | markedly decreased | markedly decreased | very little effect | 5 times lower |  |  |  |  | 
COc1cccc2c1C(=O)c1c(O)c3c(c(O)c1C2=O)C[C@@](O)(C(=O)CO)C[C@@H]3O[C@H]1C[C@H](N)[C@H](O)[C@H](C)O1 [doxorubicin] |  |  |  | very little effect | 2.6 times lower | very little or no effect | significantly increased inhibition of cell proliferation | inhibited proliferation | 12 | very little effect
CC(=O)O[C@H]1C(=O)[C@@]2(C)[C@H]([C@H](OC(=O)c3ccccc3)[C@]3(O)C[C@H](OC(=O)[C@H](O)[C@@H](NC(=O)c4ccccc4)c4ccccc4)C(C)=C1C3(C)C)[C@]1(OC(C)=O)CO[C@@H]1C[C@@H]2O [paclitaxel] |  |  |  | very little effect | half | little or no effect | significantly increased inhibition of cell proliferation | inhibited proliferation | 5 | very little effect
